Biological target: T1, Adenosine deaminase (Homo sapiens, UniProt P00813)
T1 sequence (P00813 whole entry): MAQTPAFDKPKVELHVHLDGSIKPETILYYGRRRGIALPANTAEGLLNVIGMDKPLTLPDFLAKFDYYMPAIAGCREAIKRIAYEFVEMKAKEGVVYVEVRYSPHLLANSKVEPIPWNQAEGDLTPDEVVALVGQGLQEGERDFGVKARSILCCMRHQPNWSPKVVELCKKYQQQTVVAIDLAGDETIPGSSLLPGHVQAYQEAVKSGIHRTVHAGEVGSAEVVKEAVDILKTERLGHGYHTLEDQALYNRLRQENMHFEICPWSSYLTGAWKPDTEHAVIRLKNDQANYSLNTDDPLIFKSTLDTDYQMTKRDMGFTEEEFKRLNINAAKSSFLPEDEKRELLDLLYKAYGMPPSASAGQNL
Assay: Binding affinity towards Adenosine deaminase

SMILES	Ki
OCC1OC(n2cnc3c2N=CCC[C@H]3O)C[C@H]1O (single isomer, unassigned)	2.5 pM
OCC1OC(n2cnc3c2N=CCC[C@H]3O)[C@@H](O)[C@H]1O (single isomer, unassigned) [CONFORMYCIN]	10 pM

From ChEMBL document CHEMBL1129292, “Theoretical study of inhibition of adenosine deaminase by (8R)-coformycin and (8R)-deoxycoformycin” (J Med Chem, 1996)
